Laboratory results from PubChem BioAssay AID248 (DTP/NCI, 2004).
Several values for one entry are separate records, joined by “and”; a condition that tells them apart may be missing. Identical values can stand only once. Toxic doses and inconclusive results are not listed. No stated cut-off is given here; in the data, active means T/C of 150% or more; inactive means T/C below 125%.

Tested on: L1210 leukemia ip in BDF1 mice, survival T/C
Experiment: NCI In Vivo Anticancer Drug Screen. Data for tumor model L1210 Leukemia (intraperitoneal) in B6D2F1 (BDF1) mice
Settings: endpoint: mean survival time, higher = longer survival
Outline: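 Survival endpoint. Drug-treated group vs vehicle group, expressed as T divided by C. Tumor passaged by transplantation.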

[1] = dose: 100.0 mg/kg/injection, schedule: Q04DX003 (ip), vehicle: acetone
[2] = dose: 200.0 mg/kg/injection, schedule: Q04DX003 (ip), vehicle: acetone
[3] = dose: 100.0 mg/kg/injection, schedule: Q04DX002 (ip), vehicle: Klucel (hydroxypropylcellulose) (HPC)
[4] = dose: 200.0 mg/kg/injection, schedule: Q04DX002 (ip), vehicle: Klucel (hydroxypropylcellulose) (HPC)
[5] = dose: 400.0 mg/kg/injection, schedule: Q04DX002 (ip), vehicle: Klucel (hydroxypropylcellulose) (HPC)
[6] = dose: 100.0 mg/kg/injection, schedule: Q01DX009 (ip), vehicle: saline with Tween-80
[7] = dose: 200.0 mg/kg/injection, schedule: Q01DX009 (ip), vehicle: saline with Tween-80
[8] = dose: 400.0 mg/kg/injection, schedule: Q01DX009 (ip), vehicle: saline with Tween-80
[9] = dose: 100.0 mg/kg/injection, schedule: Q01DX001 (ip), vehicle: Klucel (hydroxypropylcellulose) (HPC)
[10] = dose: 200.0 mg/kg/injection, schedule: Q01DX001 (ip), vehicle: Klucel (hydroxypropylcellulose) (HPC)
[11] = dose: 400.0 mg/kg/injection, schedule: Q01DX001 (ip), vehicle: Klucel (hydroxypropylcellulose) (HPC)
[12] = dose: 100.0 mg/kg/injection, schedule: Q04DX003 (ip), vehicle: Klucel (hydroxypropylcellulose) (HPC)
[13] = dose: 100.0 mg/kg/injection, schedule: Q01DX009 (ip), vehicle: saline
[14] = dose: 200.0 mg/kg/injection, schedule: Q01DX009 (ip), vehicle: saline
[15] = dose: 400.0 mg/kg/injection, schedule: Q01DX009 (ip), vehicle: saline
[16] = dose: 100.0 mg/kg/injection, schedule: Q04DX003 (ip), vehicle: saline with Tween-80
[17] = dose: 200.0 mg/kg/injection, schedule: Q04DX003 (ip), vehicle: saline with Tween-80
[18] = dose: 400.0 mg/kg/injection, schedule: Q04DX003 (ip), vehicle: saline with Tween-80
[19] = dose: 200.0 mg/kg/injection, schedule: Q04DX003 (ip), vehicle: Klucel (hydroxypropylcellulose) (HPC)

Measured: T/C

N#CCCCI
inactive: dose: 50.0 mg/kg/injection, schedule: Q04DX003 (ip), vehicle: acetone 96 % of control | [1] 100 % of control | [2] 105 % of control

O=C1CCCCC1C(=O)C(F)(F)F (stereo not given)
inactive: dose: 12.5 mg/kg/injection, schedule: Q01DX009 (ip), vehicle: other 104 % of control | dose: 12.5 mg/kg/injection, schedule: Q04DX003 (ip), vehicle: other 103 % of control | dose: 25.0 mg/kg/injection, schedule: Q01DX009 (ip), vehicle: other 104 % of control | dose: 25.0 mg/kg/injection, schedule: Q04DX003 (ip), vehicle: other 93 % of control | dose: 50.0 mg/kg/injection, schedule: Q01DX009 (ip), vehicle: other 98 % of control | dose: 50.0 mg/kg/injection, schedule: Q04DX003 (ip), vehicle: other 97 % of control | dose: 75.0 mg/kg/injection, schedule: Q01DX009 (ip), vehicle: other 97 % of control | dose: 115.0 mg/kg/injection, schedule: Q01DX009 (ip), vehicle: other 87 % of control | dose: 170.0 mg/kg/injection, schedule: Q01DX009 (ip), vehicle: other 89 % of control

COc1ccc2c(c1C)CCC1(CO)CC(C)=CCC21 (stereo not given)
inactive: dose: 100.0 mg/kg/injection, schedule: Q01DX009 (ip), vehicle: saline sonified 93 % of control | dose: 200.0 mg/kg/injection, schedule: Q01DX009 (ip), vehicle: saline sonified 94 % of control | dose: 400.0 mg/kg/injection, schedule: Q01DX009 (ip), vehicle: saline sonified 91 % of control

c1ccc(-c2coc(-c3ccccc3)c2)cc1
inactive: [3] 101 % of control | [4] 101 % of control | [5] 97 % of control

O=c1[nH]c2ccc(I)cc2c(=O)o1
inactive: [6] 100 % of control | [7] 100 % of control | [8] 101 % of control

CCCCCCCCCCCSCCCCCCCCSCCCCCCCCCCC
inactive: [9] 87 % of control | [10] 92 % of control | [11] 91 % of control

CC(C)(C)C(=O)CS(=O)(=O)C(Br)C(=O)C(C)(C)C (stereo not given)
inactive: [12] 100 % of control

N#Cc1cc(Cl)ccc1Cl
inactive: dose: 100.0 mg/kg/injection, schedule: Q01DX009 (ip), vehicle: gum acacia 100 % of control | dose: 100.0 mg/kg/injection, schedule: Q04DX003 (ip), vehicle: gum acacia 98 % of control | dose: 200.0 mg/kg/injection, schedule: Q01DX009 (ip), vehicle: gum acacia 103 % of control | dose: 200.0 mg/kg/injection, schedule: Q04DX003 (ip), vehicle: gum acacia 95 % of control | dose: 400.0 mg/kg/injection, schedule: Q01DX009 (ip), vehicle: gum acacia 95 % of control | dose: 400.0 mg/kg/injection, schedule: Q04DX003 (ip), vehicle: gum acacia 93 % of control

COC(=O)C1=C(c2ccncc2)c2cccc3cccc1c23
inactive: dose: 100.0 mg/kg/injection, schedule: Q04DX003 (ip), vehicle: alcohol 94 % of control | dose: 200.0 mg/kg/injection, schedule: Q04DX003 (ip), vehicle: alcohol 102 % of control

Cc1cc(N)no1
inactive: [13] 100 % of control | dose: 100.0 mg/kg/injection, schedule: Q04DX003 (ip), vehicle: saline 108 % of control | [14] 104 % of control | dose: 200.0 mg/kg/injection, schedule: Q04DX003 (ip), vehicle: saline 106 % of control | [15] 104 % of control | dose: 400.0 mg/kg/injection, schedule: Q04DX003 (ip), vehicle: saline 108 % of control

CCOc1ccc(C(=O)Nc2c(C)cc(C)cc2C)cc1
inactive: [6] 96 % of control | [16] 100 % of control | [7] 96 % of control | [17] 93 % of control | [8] 101 % of control | [18] 94 % of control

O=Cc1ccc(O)c(Br)c1
inactive: [6] 100 % of control | [7] 109 % of control | [8] 88 % of control

CCOP(=S)(OCC)S/C(C(=O)NC)=C(/C)O
inactive: dose: 6.25 mg/kg/injection, schedule: Q01DX009 (ip), vehicle: Klucel (hydroxypropylcellulose) (HPC) 94 % of control | dose: 12.5 mg/kg/injection, schedule: Q01DX009 (ip), vehicle: Klucel (hydroxypropylcellulose) (HPC) 97 % of control | dose: 100.0 mg/kg/injection, schedule: Q04DX003 (sc), vehicle: olive oil, sesame oil, peanut oil 103 % of control | dose: 200.0 mg/kg/injection, schedule: Q04DX003 (sc), vehicle: olive oil, sesame oil, peanut oil 106 % of control

CC(C)(C)CC(CC(C)(C)C)C(=O)O
inactive: dose: 106.0 mg/kg/injection, schedule: Q01DX Z (ip), vehicle: other 94 % of control | dose: 160.0 mg/kg/injection, schedule: Q01DX Z (ip), vehicle: other 102 % of control | dose: 240.0 mg/kg/injection, schedule: Q01DX Z (ip), vehicle: other 96 % of control and 103 % of control | dose: 360.0 mg/kg/injection, schedule: Q01DX Z (ip), vehicle: other 101 % of control and 89 % of control | dose: 540.0 mg/kg/injection, schedule: Q01DX Z (ip), vehicle: other 86 % of control

CCC(O)(CC(=O)O)c1ccccc1 (stereo not given)
inactive: [6] 91 % of control | [16] 104 % of control | [7] 96 % of control | [17] 104 % of control | [18] 105 % of control

Cc1nc2ccccc2c(=O)n1C(C)(C)CCl
inactive: [16] 95 % of control | [17] 92 % of control | [18] 95 % of control

C=CCCC(C)=O
inactive: dose: 100.0 mg/kg/injection, schedule: Q04DX002 (ip), vehicle: saline with Tween-80 102 % of control | dose: 200.0 mg/kg/injection, schedule: Q04DX002 (ip), vehicle: saline with Tween-80 102 % of control | dose: 400.0 mg/kg/injection, schedule: Q04DX002 (ip), vehicle: saline with Tween-80 102 % of control

O=C(NC1CCC(C(=O)O)CC1)OCc1ccccc1 (stereo not given)
inactive: dose: 100.0 mg/kg/injection, schedule: Q01DX001 (ip), vehicle: saline 98 % of control | [13] 109 % of control | [1] 96 % of control | dose: 200.0 mg/kg/injection, schedule: Q01DX001 (ip), vehicle: saline 102 % of control | [14] 100 % of control | [2] 102 % of control | dose: 400.0 mg/kg/injection, schedule: Q01DX001 (ip), vehicle: saline 98 % of control | [15] 105 % of control | dose: 400.0 mg/kg/injection, schedule: Q04DX003 (ip), vehicle: acetone 98 % of control

Cc1cccc(NC(=O)Nc2ccc(F)cc2)n1
inactive: [9] 94 % of control | dose: 100.0 mg/kg/injection, schedule: Q01DX009 (ip), vehicle: Klucel (hydroxypropylcellulose) (HPC) 98 % of control | [3] 98 % of control and 103 % of control | [12] 97 % of control | [10] 96 % of control | dose: 200.0 mg/kg/injection, schedule: Q01DX009 (ip), vehicle: Klucel (hydroxypropylcellulose) (HPC) 95 % of control | [4] 100 % of control and 102 % of control | [19] 100 % of control | [11] 86 % of control | dose: 400.0 mg/kg/injection, schedule: Q01DX009 (ip), vehicle: Klucel (hydroxypropylcellulose) (HPC) 95 % of control | [5] 105 % of control and 107 % of control | dose: 400.0 mg/kg/injection, schedule: Q04DX003 (ip), vehicle: Klucel (hydroxypropylcellulose) (HPC) 107 % of control

O=C(Nc1cccc(C(F)(F)F)c1)Oc1ccc(Cl)cc1Cc1ccccc1
inactive: [6] 98 % of control | [7] 93 % of control | [8] 92 % of control

O=C1COc2ccccc2N1
inactive: dose: 50.0 mg/kg/injection, schedule: Q04DX003 (ip), vehicle: Klucel (hydroxypropylcellulose) (HPC) 96 % of control | dose: 100.0 mg/kg/injection, schedule: Q01DX001 (ip), vehicle: other 103 % of control | [12] 94 % of control | dose: 200.0 mg/kg/injection, schedule: Q01DX001 (ip), vehicle: other 96 % of control | [19] 96 % of control

CCOC(CN=CC1CCC=CO1)OCC (stereo not given)
inactive: [16] 91 % of control | [17] 96 % of control | [18] 95 % of control
